The text below walks through data of paper PMC10716780, “The multistep oxidation of cholesterol to pregnenolone by human cytochrome P450 11A1 is highly processive” (The Journal of Biological Chemistry, 2023).

The target in one data set is T1, P450 11A1 (CYP11A1) (Homo sapiens, UniProt P05108).
T1 construct: M A S T R S P R P F N E I P S P G D N; Met-Ala (N-terminal start residues in place of the transit peptide and Ile40) (N); made in house; host or cells: E. coli (P450 11A1 in C41(DE3); Adx and AdR in E. coli)
T1 sequence (P05108 41-521 limits assumed): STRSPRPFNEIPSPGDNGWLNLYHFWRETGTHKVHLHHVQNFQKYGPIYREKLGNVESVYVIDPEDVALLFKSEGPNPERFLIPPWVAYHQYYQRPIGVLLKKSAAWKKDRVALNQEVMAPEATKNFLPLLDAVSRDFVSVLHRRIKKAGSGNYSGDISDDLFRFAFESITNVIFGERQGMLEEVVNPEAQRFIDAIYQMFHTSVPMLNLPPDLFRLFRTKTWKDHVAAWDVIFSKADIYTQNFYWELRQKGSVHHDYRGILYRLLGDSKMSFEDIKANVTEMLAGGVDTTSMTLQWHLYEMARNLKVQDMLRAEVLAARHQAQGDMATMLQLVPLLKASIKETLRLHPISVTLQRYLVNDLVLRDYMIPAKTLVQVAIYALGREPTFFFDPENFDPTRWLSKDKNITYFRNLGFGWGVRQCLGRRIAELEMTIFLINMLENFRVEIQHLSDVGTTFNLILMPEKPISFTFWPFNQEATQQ
T1 sequence (P00257 59-186 partner): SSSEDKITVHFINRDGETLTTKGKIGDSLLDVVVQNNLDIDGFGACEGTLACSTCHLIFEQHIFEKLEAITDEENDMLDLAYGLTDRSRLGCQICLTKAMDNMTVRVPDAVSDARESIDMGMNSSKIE
Kind of data set: Kinetic isotope effect assay, disappearance of d0- and d3-cholesterol under single-turnover conditions. Conditions: human, pH 7.4; 5 μM P450, 5 μM sterol, low Adx single-turnover; read-out: sterol half-life (t1/2) (converted). It is filed as biochemical. Here is the method:
(§1) P450 11A1 incubations were performed under (low Adx) single-turnover conditions (5 μM P450, 5 μM cholesterol; see Experimental procedures) with d0- (authentic, unlabeled) and d3-cholesterol, and the disappearance of each was monitored by LC-atmospheric pressure chemical ionization-MS (m/z 369.3516 and 372.3705, respectively). In theory, if C-H bond breaking were rate-limiting in the initial hydroxylation then the rate of d3-cholesterol consumption would be slower relative to the d0 compound due to the increased strength of a C-D bond.
The kinetic isotope experiment was designed similarly to the benchtop experiment described above, but with some modifications. P450 11A1 (5 μM) was reconstituted with the redox partners AdR (10 μM) and Adx (5 μM) on ice (10 min) prior to dilution in potassium Hepes (50 mM, pH 7.4) and H2O and addition of d3-cholesterol substrate (5 μM). […]
Samples (held at 4 °C) were injected (10 μl) using a Waters Acquity UPLC system on a Acquity BEH octadecylsilane (C18) 2.1 mm × 50 mm (1.7 μm) UPLC column (held at 25 °C) with a flow rate of 0.5 ml min^−1 using an isocratic mobile phase of CH3CN (only). The column eluate was subjected to atmospheric pressure chemical ionization and analyzed using a Thermo Fisher Scientific LTQ XL Orbitrap mass spectrometer instrument operating in positive mode, scanning from m/z 100 to 500, with a resolution setting of 120,000. […]

For another data set, the target named is T2, human P450 11A1 (Homo sapiens, UniProt P05108).
T2 sequence (P05108 41-521 limits assumed): T1 sequence (P05108 41-521 limits assumed)
T2 sequence (P00257 59-186 partner): T1 sequence (P00257 59-186 partner)
Described as above. It is filed as biochemical. Also on record: M A S T R S P R P F N E I P S P G D N; Met-Ala (N-terminal start residues in place of the transit peptide and Ile40) (N); made in house; host or cells: E. coli (P450 11A1 in C41(DE3); Adx and AdR in E. coli). The settings on record: 5 μM P450, 5 μM sterol, exponential decay fit. The protocol:
as §1
The kinetic isotope experiment was designed similarly to the benchtop experiment described above, but with some modifications. P450 11A1 (5 μM) was reconstituted with the redox partners AdR (10 μM) and Adx (5 μM) on ice (10 min) prior to dilution in potassium Hepes (50 mM, pH 7.4) and H2O and addition of d3-cholesterol substrate (5 μM). The mixture was preincubated (5 min) prior to initiation with NADPH (2.5 mM, from 25 mM in potassium Hepes (50 mM, pH 7.4)) thus bringing all components to their desired final concentrations. After completing the desired incubation time, an aliquot (500 μl) was removed from the incubation and added to vials containing CH2Cl2 (5 ml) and the vials were mixed with a vortex device and placed on ice. The quenched reactions were centrifuged (10^3g, 5 min, 23 °C) to separate layers, and the organic (bottom) layers were removed (4 ml) and transferred to fresh glass vials. The extraction process was repeated and the two extracts (2 × 4 ml) from each sample were combined to maximize product recovery. Samples (8 ml) were brought to dryness under a stream of nitrogen, and the dried residues were dissolved in CH3OH (25 μl) and transferred to autosampler vials for analysis.
Samples (held at 4 °C) were injected (10 μl) using a Waters Acquity UPLC system on a Acquity BEH octadecylsilane (C18) 2.1 mm × 50 mm (1.7 μm) UPLC column (held at 25 °C) with a flow rate of 0.5 ml min^−1 using an isocratic mobile phase of CH3CN (only). The column eluate was subjected to atmospheric pressure chemical ionization and analyzed using a Thermo Fisher Scientific LTQ XL Orbitrap mass spectrometer instrument operating in positive mode, scanning from m/z 100 to 500, with a resolution setting of 120,000. Data were processed using Xcalibur QualBrowser (Thermo Fisher Scientific) software (version 2.0.7; https://www.thermofishcer.com/order/catalog/product/OPTON).

Turning to `CC(C)CCC[C@@H](C)[C@H]1CC[C@H]2[C@@H]3CC=C4C[C@@H](O)CC[C@]4(C)[C@H]3CC[C@]12C` [Cholesterol], the half-life at 5 μM at P450 11A1 (CYP11A1) is 0.333 min. Besides, on human P450 11A1, the rate of disappearance stood at 0.035 s⁻¹.
